Here are results for one compound from ChEMBL document CHEMBL4339189, “Dissymmetric pyridyl-substituted 3,5-bis(arylidene)-4-piperidones as anti-hepatoma agents by inhibiting NF-κB pathway activation” (Eur J Med Chem, 2019).

The structures appear in SMILES notation. Activity calls are given as the source filed them. No cut-off for these calls is given here. Some results are limits rather than exact numbers.

In test [1] the test system is SMMC-7721. As to the kind of experiment: Cytotoxicity against human SMMC7721 cells assessed as reduction in cell viability incubated for 24 hrs by MTT assay. Format: functional, cell-based. In general terms: Tetrazolium dyes change colour on reduction, which living cells bring about.
A further test relates to Mus musculus. The test can be described thus: Antiinflammatory activity in human HepG2 cells xenografted Balb/c nude mouse assessed as reduction in TNFalpha protein expression at 10 mg/kg, ip administered every 2 days for 20 days and measured every 2 days by immunohistochemistry. It counts as functional, organism-based.
The target of test [2] is T1, NF-kappa-B inhibitor alpha (Mus musculus) (UniProt Q9Z1E3).
T1 sequence (whole entry): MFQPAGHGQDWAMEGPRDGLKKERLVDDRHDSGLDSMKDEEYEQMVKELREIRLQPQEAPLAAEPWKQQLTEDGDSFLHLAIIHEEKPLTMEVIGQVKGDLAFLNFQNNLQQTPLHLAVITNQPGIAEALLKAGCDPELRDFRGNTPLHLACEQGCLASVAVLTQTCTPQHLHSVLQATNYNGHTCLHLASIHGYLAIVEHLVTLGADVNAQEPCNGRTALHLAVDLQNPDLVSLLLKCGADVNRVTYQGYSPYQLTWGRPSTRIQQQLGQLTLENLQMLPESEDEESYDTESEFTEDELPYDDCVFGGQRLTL
As to the kind of experiment: Inhibition of NFkappaB signalling activation in mouse RAW264.7 cells assessed as reduction in […] IkBalpha phosphorylation at 1 to 4 uM incubated for 2 hrs after pre-incubation with LPS for 15 mins by Western blot analysis. Format: cell-based.

Test [3] concerns HepG2. The test can be described thus: Induction of apoptosis in human HepG2 cells assessed as increase in apoptotic cell population at 2.0 uM incubated for 24 hrs by Annexin V-FITC/propidium iodide staining based flow cytometry relative to control. It counts as functional.
Test [4] relates to HepG2. As to the kind of experiment: Antitumor activity against human HepG2 cells xenografted in Balb/c nude mouse assessed as tumor volume level at 10 mg/kg, ip administered every 2 days for 20 days and measured every 2 days. It counts as functional.
The test system of test [5] is SMMC-7721. The test can be described thus: Induction of apoptosis in human SMMC7721 cells assessed as increase in apoptotic cell population at 4.0 uM incubated for 24 hrs by Annexin V-FITC/propidium iodide staining based flow cytometry. Format: functional. Background: In flow cytometry, cells or beads pass a laser one at a time.
The subject of test [6] is SMMC-7721. As to the kind of experiment: Induction of apoptosis in human SMMC7721 cells assessed as increase in apoptotic cell population at 4.0 uM incubated for 24 hrs by Annexin V-FITC/propidium iodide staining based flow cytometry relative to control. It counts as functional.
The test system of test [7] is HepG2. As to the kind of experiment: Antitumor activity against human HepG2 cells xenografted in Balb/c nude mouse assessed as effect on tumor volume level at 0.1 mg/kg, ip administered every 2 days for 20 days and measured every 2 days. It counts as functional, organism-based. For orientation: Xenograft models place foreign cells or tissue in a host animal.
The test system of test [8] is HepG2. The test can be described thus: Antitumor activity against human HepG2 cells xenografted in Balb/c nude mouse assessed as induction of wrinkled abnormalities on cell morphology at 10 mg/kg, ip administered every 2 days for 20 days and measured every 2 days by H and E staining based assay. It counts as functional, organism-based.

With `O=C1/C(=C/c2cccnc2)CN(S(=O)(=O)c2ccc(C(F)(F)F)cc2)C/C1=C\c1ccccc1C(F)(F)F`, the Activity result in the test with SMMC-7721 [1] is “Dose-dependent effect”; in the test with HepG2 [3] it was 40%; in the test on HepG2 [4], under 200 mm3; with SMMC-7721 [5] it was “Dose-dependent effect”; with SMMC-7721 [6], over 70%. Further, in the test on SMMC-7721 [1] (SMMC-7721, 24 h), the IC50 (usually the point on the concentration scale where inhibition reaches its midpoint) was 1730 nM. Moreover, the result in the test on Mus musculus and in the test on HepG2 [8] was Active. Besides, the inhibition result in test [2] was “Dose-dependent effect”. Further, the outcome in the test on HepG2 [7] was inactive.
